# In PMC7822874, “Chemoprotective antimalarials identified through quantitative high-throughput screening of Plasmodium blood and liver stage parasites” (Scientific Reports, 2021):
# Read-outs that look alike come from different tables or passages of the source.
# How the values were obtained:
# [1] = test system: P. berghei-ANKA-GFP-LucCON liver stage parasites in HepG2-A16-CD81EGFP cells; test: P. berghei liver stage Pb-Luc assay, Method 1 (UCSD, 1536-well); format: cell-based, Plasmodium berghei; details: for activity at 1 µM / activity at 3 µM: 48 h, average of 2 wells on a 1536 well plate; for activity at 1 µM: 1 uM (compounds provided at 10 mM); for activity at 3 µM: 3 uM (compounds provided at 10 mM); for Max Resp (signal direction of the dose response): Decrease = decreasing P. berghei viability with dose, Increase = increasing signal, Inactive = no dose response
# [2] = test system: Plasmodium falciparum Dd2 asexual blood stage parasites; test: microbe, parasite or virus in culture; parameters: species or system Plasmodium falciparum Dd2 in human erythrocytes; single determination (one 11-point concentration-response curve); details: Plasmodium falciparum, DD2, Erythrocyte, 72 h; read-out: AC50
# in vitro = details: human
# [3] = Plasmodium berghei, column 11, read-out: Pb-Luc (P. berghei liver stage), % of control, lower concentration, first repeat
# [4] = Plasmodium berghei, column 12, read-out: Pb-Luc (P. berghei liver stage), % of control, lower concentration, second repeat
# [5] = Plasmodium berghei, column 8, read-out: Pb-Luc (P. berghei liver stage), % of control, higher concentration, first repeat
# [6] = Plasmodium berghei, column 9, read-out: Pb-Luc (P. berghei liver stage), % of control, higher concentration, second repeat
# [7] = HepG2-A16-CD81EGFP cells, uninfected
# [8] = Plasmodium berghei, Method 1, Hill fit, 50% of maximum activity response, read-out: AC50
# [9] = Plasmodium berghei, Method 1, log10 of molar AC50 from Hill fit, read-out: Log AC50 (converted)
Structure (SMILES),"activity at 1 µM [1, 3]","activity at 1 µM [1, 4]","activity at 3 µM [1, 5]","activity at 3 µM [1, 6]",AC50 [2],"viability at 48 h, 1 µM (in vitro; [7])","viability at 48 h, 3 µM (in vitro; [7])",Max Resp (signal direction of the dose response) ([1]; Method 1),viability at 48 h (in vitro; [7]),"AC50 [1, 8]","AC50 [1, 9]",viability at 66 h (in vitro; [7]),"AC50 ([1]; Method 1, Hill fit, 50% of maximum activity response, read-out: AC50)","Log AC50 (M) ([1]; Method 1, log10 of molar AC50 from Hill fit)",viability at 48 h (in vitro),"viability at 48 h, 1 µM (in vitro)"
CCOC(=O)c1c(C)oc2c1C(=O)c1ccccc1C2=O [MLS000684830-01],95%,85%,72%,93%,422 nM,105%,99%,–,–,–,–,–,–,–,–,–
Oc1ccccc1Nc1nc(NCc2ccco2)c2ccccc2n1 [MLS000693437-01],–,–,–,–,2990 nM,95.6%,–,Inactive,95.6%,–,–,–,–,–,–,–
CC1CCCCN1S(=O)(=O)c1ccc(C(=O)Nc2ccccc2-c2nc3ccccc3[nH]2)cc1 (stereo not drawn) [MLS000697052-01],–,–,–,–,7500 nM,–,–,–,–,355 nM,355 nM,104%,–,–,–,–
CCOC(=O)c1ccc(N=C(S)N2CCN(CCNC3=CC(=O)CC(C)(C)C3)CC2)cc1 [MLS000710946-01],118%,96%,134%,116%,5960 nM,96%,101%,–,–,–,–,–,–,–,–,–
COc1ccc(-c2c(C)nn3c(N)c(C#N)cnc23)cc1OC [MLS000718813-01],–,–,–,–,1680 nM,–,–,Decrease,–,1260 nM,1260 nM,108%,1410 nM,-5.850 M,–,–
CCOc1ccc(NC(=O)c2cc3ccccc3cc2O)cc1 [MLS000736677-01],–,–,–,–,5310 nM,–,–,Decrease,–,501 nM,501 nM,–,–,–,100%,100%
CCCCCNc1nc2sc3c(c2c(=O)n1-c1cccc(Cl)c1)CCN(C)C3 [MLS000762913-01],99%,101%,72%,91%,7500 nM,92%,105%,–,–,–,–,–,–,–,–,–
Cc1ccc(/C=N/Nc2cc(C)nc(NCc3ccccc3)n2)cc1 [MLS000769291-01],97%,106%,138%,126%,5310 nM,98%,95%,–,–,–,–,–,–,–,–,–
COc1cc(O)c(C(CCN2CCCCC2)c2ccc3c(c2)OCO3)c(OC)c1 (stereo not drawn) [MLS000879495-01],100%,116%,99%,98%,1330 nM,113%,94%,–,–,–,–,–,–,–,–,–
COc1cc(O)c(C(CCN2CCN(c3ccccc3)CC2)c2cc(OC)c(OC)c(OC)c2)c(OC)c1 (stereo not drawn) [MLS000879517-01],87%,82%,84%,91%,1330 nM,96%,102%,–,–,–,–,–,–,–,–,–
COc1cc(O)c(C(CCN2CCN(c3ccccc3)CC2)c2ccc3c(c2)OCO3)c(OC)c1 (stereo not drawn) [MLS000879526-01],105%,112%,97%,92%,841 nM,117%,96%,–,–,–,–,–,–,–,–,–
NC1=NC[C@@H](Cc2ccc(O)cc2)N1CCCCC1CCCCC1 [MLS000888822-01],90%,82%,35%,46%,4730 nM,116%,94%,–,–,–,–,–,–,–,–,–
CCN1CCN(Cc2ccc(NC(=O)c3cc(NC(=O)c4cnn(-c5ccccc5)c4N)cc(OC)c3)cc2C(F)(F)F)CC1 [MLS000911569-01],116%,92%,116%,103%,2110 nM,98%,106%,–,–,–,–,–,–,–,–,–
O=C(Nc1ccc(-c2csc(Nc3ccccc3)n2)cc1)c1cc([N+](=O)[O-])cc(C(F)(F)F)c1 [MLS000911606-01],–,–,–,–,2110 nM,–,–,–,–,2820 nM,2820 nM,104%,–,–,–,–
Cc1ccc(C)c(NC(=O)CN(C)C(=O)c2ccc(-c3ccc(Cl)cc3)o2)c1 [MLS001077062-01],137%,128%,154%,145%,4730 nM,98%,102%,–,–,–,–,–,–,–,–,–
COc1cc2ccccc2cc1C(=O)N1CC(C)CC(C)C1 (stereo not drawn) [MLS001129394-01],125%,114%,67%,101%,2370 nM,108%,98%,–,–,–,–,–,–,–,–,–
CN(CC(=O)Nc1cccc(F)c1)C(=O)c1ccc(-c2cccc(C(F)(F)F)c2)o1 [MLS001139679-01],156%,127%,81%,96%,668 nM,103%,99%,–,–,–,–,–,–,–,–,–
COc1cccc(NC(=O)CN(C)C(=O)c2ccc(-c3ccc(Cl)cc3)o2)c1 [MLS001142098-01],146%,155%,150%,187%,4220 nM,100%,100%,–,–,–,–,–,–,–,–,–
CCCCCCCNC(=O)C1(CC2CC(c3ccc(Cl)cc3)=NO2)CCN(C(=O)c2cc(OCC)c(OCC)c(OCC)c2)CC1 (stereo not drawn) [MLS001143958-01],–,–,–,–,3350 nM,103%,–,Decrease,103%,2820 nM,2820 nM,–,–,–,–,–
CCCc1cc(=O)oc2cc(C)cc(OCC(=O)Nc3ccccn3)c12 [MLS001160382-01],212%,140%,42%,160%,2110 nM,97%,111%,–,–,–,–,–,–,–,–,–
Cc1ccc(C)c(NC(=O)CN(C)C(=O)c2ccc(-c3cccc(C(F)(F)F)c3)o2)c1 [MLS001161354-01],171%,168%,154%,126%,2110 nM,98%,102%,–,–,–,–,–,–,–,–,–
CCOc1ccc(NC(=O)CN2C(=O)NC(C)(c3ccc(OC(F)F)cc3)C2=O)cc1 (stereo not drawn) [MLS001193353-01],120%,108%,48%,87%,9440 nM,109%,103%,–,–,–,–,–,–,–,–,–
CC1CCCN(Cc2c(O)ccc3c(=O)c(-c4ccc(Cl)cc4)coc23)C1 (stereo not drawn) [MLS001196099-01],102%,123%,105%,96%,1880 nM,113%,99%,–,–,–,–,–,–,–,–,–
Cn1c(S)nc2sc3c(c2c1=O)CCC(C(C)(C)C)C3 (stereo not drawn) [MLS001198408-01],80%,94%,69%,61%,5310 nM,97%,107%,–,–,–,–,–,–,–,–,–
COc1cc2nc(Nc3ccc(C)c(Cl)c3)nc(N)c2cc1OC [MLS001199666-01],99%,121%,97%,111%,2110 nM,109%,100%,–,–,–,–,–,–,–,–,–
CCn1cc(C(=O)N[C@@H](CCSC)C(=O)NC(C)(C)CO)c(=O)c2cc3c(cc21)OCO3 [MLS001201727-01],–,–,–,–,2990 nM,103%,–,Inactive,103%,–,–,–,–,–,–,–
C=C(C)COc1ccc(-c2ncnc(C(F)(F)F)c2-c2ccc(OC)cc2)c(O)c1 [MLS001216205-01],120%,94%,111%,99%,2990 nM,89%,104%,–,–,–,–,–,–,–,–,–
Cc1ccc(/C=N/NC(=O)c2cc3ccccc3cc2O)o1 [MLS001219838-01],–,–,–,–,5310 nM,97.9%,–,Decrease,97.9%,1410 nM,1410 nM,–,–,–,–,–
COc1ccc(S(=O)(=O)N2CCC3(CC2)OCCN3S(=O)(=O)c2c(C)cc(C)cc2C)cc1 [MLS001237293-01],88%,81%,87%,75%,2660 nM,108%,103%,–,–,–,–,–,–,–,–,–
CCCSc1ccc([C@H]2N[C@@](Cc3ccccc3)(C(=O)OC)[C@H]3C(=O)N(CC)C(=O)[C@@H]23)cc1 [MLS001362807-01],115%,102%,124%,103%,5310 nM,109%,103%,–,–,–,–,–,–,–,–,–
